Laboratory results: patent US9930892B2, “Molecules having pesticidal utility, and intermediates, compositions, and processes, related thereto” (Dow AgroSciences LLC, priority 2016, dated 2018)

Tests used:
[1] = system: Cabbage Looper (Trichoplusia ni); assay: Bioassay on Cabbage Looper (CL), 128-well diet tray assay; type: in vivo; settings: for CL % Control (or Mortality) rating: 50 μg/cm^2 on artificial diet, second instar larvae, five to seven days, 25° C.; for mortality at 0.05 µg/cm2 / mortality at 0.5 µg/cm2 / mortality at 5 µg/cm2: Trichoplusia ni, read-out: CL Percent control (or mortality); for mortality at 0.05 µg/cm2: 0.05 μg/cm^2; for mortality at 0.5 µg/cm2: 0.5 μg/cm^2; for mortality at 5 µg/cm2: 5 μg/cm^2
Protocol: Bioassays on CL were conducted using a 128-well diet tray assay. One to five second instar CL larvae were placed in each well (3 mL) of the diet tray that had been previously filled with 1 mL of artificial diet to which 50 μg/cm^2 of the test molecule (dissolved in 50 μL of 90:10 acetone-water mixture) had been applied (to each of eight wells) and then allowed to dry. Trays were covered with a clear self-adhesive cover and held at 25° C., 14:10 light-dark for five to seven days. Percent mortality was recorded for the larvae in each well; activity in the eight wells was then averaged. The results are indicated in the table entitled “Table ABC: Biological Results” (See Table Section).
(§1) Bioassays on BAW and CL were conducted according to the procedures outlined in Example A: Bioassays on Beet Armyworm (“BAW”) and Cabbage Looper (“CL”) using the indicated concentrations.

[2] = system: Beet Armyworm (Spodoptera exigua); assay: Bioassay on Beet Armyworm (BAW), 128-well diet tray assay; type: in vivo; settings: for BAW % Control (or Mortality) rating: 50 μg/cm^2 on artificial diet, second instar larvae, five to seven days, 25° C.; for mortality at 0.05 µg/cm2 / mortality at 0.5 µg/cm2 / mortality at 5 µg/cm2: Spodoptera exigua, read-out: BAW Percent control (or mortality); for mortality at 0.05 µg/cm2: 0.05 μg/cm^2; for mortality at 0.5 µg/cm2: 0.5 μg/cm^2; for mortality at 5 µg/cm2: 5 μg/cm^2
Protocol: Bioassays on BAW were conducted using a 128-well diet tray assay. One to five second instar BAW larvae were placed in each well (3 mL) of the diet tray that had been previously filled with 1 mL of artificial diet to which 50 μg/cm^2 of the test molecule (dissolved in 50 μL of 90:10 acetone-water mixture) had been applied (to each of eight wells) and then allowed to dry. Trays were covered with a clear self-adhesive cover and held at 25° C., 14:10 light-dark for five to seven days. Percent mortality was recorded for the larvae in each well; activity in the eight wells was then averaged. The results are indicated in the table entitled “Table ABC: Biological Results” (See Table Section).
as §1

SMILES	CL % Control (or Mortality) rating [1]	BAW % Control (or Mortality) rating [2]	further results
CN(NC(=O)c1ccc(/C(F)=C/C(c2cc(Cl)c(Cl)c(Cl)c2)C(F)(F)F)cc1C(F)(F)F)C(=O)NCC(F)(F)F (centres unmarked) [F1, (Z)-1-methyl-2-(4-(1,4,4,4-tetrafluoro-3-(3,4,5-trichlorophenyl)but-1-en-1-yl)-2-(trifluoromethyl)benzoyl)-N-(2,2,2-trifluoroethyl)hydrazinecarboxamide]	A (50-100)	A (50-100)	mortality at 0.05 µg/cm2 [1]: 100%; mortality at 0.5 µg/cm2 [1]: 100%; mortality at 5 µg/cm2 [1]: 100%; mortality at 0.05 µg/cm2 [2]: 100%; mortality at 0.5 µg/cm2 [2]: 100%; mortality at 5 µg/cm2 [2]: 100%
O=C(NCC(F)(F)F)NNC(=O)c1ccc(/C(F)=C/C(c2cc(Cl)c(Cl)c(Cl)c2)C(F)(F)F)cc1Br (centres unmarked) [F2, (Z)-2-(2-bromo-4-(1,4,4,4-tetrafluoro-3-(3,4,5-trichlorophenyl)but-1-en-1-yl)benzoyl)-N-(2,2,2-trifluoroethyl)hydrazinecarboxamide]	A (50-100)	A (50-100)	
O=C(NCC(F)(F)F)NNC(=O)c1ccc(/C(F)=C/C(c2cc(Cl)c(Cl)c(Cl)c2)C(F)(F)F)cc1C(F)(F)F (centres unmarked) [F3, (Z)-2-(4-(1,4,4,4-Tetrafluoro-3-(3,4,5-trichlorophenyl)but-1-en-1-yl)-2-(trifluoromethyl)benzoyl)-N-(2,2,2-trifluoroethyl)hydrazinecarboxamide]	A (50-100)	A (50-100)	
O=C(CCC(F)(F)F)NNC(=O)c1ccc(/C(F)=C/C(c2cc(Cl)c(Cl)c(Cl)c2)C(F)(F)F)cc1C(F)(F)F (centres unmarked) [F4, (Z)-4-(1,4,4,4-Tetrafluoro-3-(3,4,5-trichlorophenyl)but-1-en-1-yl)-N′-(4,4,4-trifluorobutanoyl)-2-(trifluoromethyl)benzohydrazide]	A (50-100)	A (50-100)	
CN(NC(=O)c1ccc(/C(F)=C/C(c2cc(Cl)c(Cl)c(Cl)c2)C(F)(F)F)cc1C(F)(F)F)C(=O)CCC(F)(F)F (centres unmarked) [F11, (Z)—N′-Methyl-4-(1,4,4,4-tetrafluoro-3-(3,4,5-trichlorophenyl)but-1-en-1-yl)-N′-(4,4,4-trifluorobutanoyl)-2-(trifluoromethyl)benzohydrazide]	A (50-100)	A (50-100)	
CC(F)(F)C(/C=C(\F)c1ccc(C(=O)NNC(=O)NCC(F)(F)F)c(C(F)(F)F)c1)c1cc(Cl)c(Cl)c(Cl)c1 (centres unmarked) [F12, (Z)-2-(4-(1,4,4-Trifluoro-3-(3,4,5-trichlorophenyl)pent-1-en-1-yl)-2-(trifluoromethyl)benzoyl)-N-(2,2,2-trifluoroethyl)hydrazinecarboxamide]	A (50-100)	A (50-100)	
CN(NC(=O)CCC(F)(F)F)C(=O)c1ccc(/C(F)=C/C(c2cc(Cl)c(Cl)c(Cl)c2)C(F)(F)F)cc1C(F)(F)F (centres unmarked) [F13, (Z)—N-methyl-4-(1,4,4,4-tetrafluoro-3-(3,4,5-trichlorophenyl)but-1-en-1-yl)-N′-(4,4,4-trifluorobutanoyl)-2-(trifluoromethyl)benzohydrazide]	A (50-100)	A (50-100)	
C=Cc1c(Cl)cc(C(/C=C(\F)c2ccc(C(=O)NN(C)C(=O)NCC(F)(F)F)c(C(F)(F)F)c2)C(F)(F)F)cc1Cl (centres unmarked) [F17, (Z)-2-(4-(3-(3,5-Dichloro-4-vinylphenyl)-1,4,4,4-tetrafluorobut-1-en-1-yl)-2-(trifluoromethyl)benzoyl)-1-methyl-N-(2,2,2-trifluoroethyl)hydrazinecarboxamide]	A (50-100)	A (50-100)	
CN(NC(=O)c1ccc(/C(F)=C/C(c2cc(Br)c(Cl)c(Br)c2)C(F)(F)F)cc1C(F)(F)F)C(=O)NCC(F)(F)F (centres unmarked) [F18, (Z)-2-(4-(3-(3,5-Dibromo-4-chlorophenyl)-1,4,4,4-tetrafluorobut-1-en-1-yl)-2-(trifluoromethyl)benzoyl)-1-methyl-N-(2,2,2-trifluoroethyl)hydrazinecarboxamide]	A (50-100)	A (50-100)	
CN(NC(=O)c1ccc(/C(F)=C/C(c2cc(Cl)c(Cl)c(Cl)c2)C(F)(F)F)cc1C(F)(F)F)S(=O)(=O)CCC(F)(F)F (centres unmarked) [F19, (Z)-3,3,3-trifluoro-N-methyl-N′-(4-(1,4,4,4-tetrafluoro-3-(3,4,5-trichlorophenyl)but-1-en-1-yl)-2-(trifluoromethyl)benzoyl)propane-1-sulfonohydrazide]	A (50-100)	A (50-100)	
O=C(CCC(F)(F)F)NNC(=O)c1ccc(/C(F)=C/C(c2cc(Cl)c(Cl)c(Cl)c2)C(F)(F)F)cc1Cl (centres unmarked) [F20, (Z)-2-Chloro-4-(1,4,4,4-tetrafluoro-3-(3,4,5-trichlorophenyl)but-1-en-1-yl)-N′-(4,4,4-trifluorobutanoyl)benzohydrazide]	A (50-100)	A (50-100)	
O=C(CCC(F)(F)F)NNC(=O)c1ccc(/C(F)=C/C(c2cc(Cl)c(Cl)c(Cl)c2)C(F)(F)F)cc1I (centres unmarked) [F21, (Z)-2-Iodo-4-(1,4,4,4-tetrafluoro-3-(3,4,5-trichlorophenyl)but-1-en-1-yl)-N′-(4,4,4-trifluorobutanoyl)benzohydrazide]	A (50-100)	A (50-100)	
CN(NC(=O)c1ccc(/C(F)=C/C(c2cc(Cl)c(Br)c(Cl)c2)C(F)(F)F)cc1C(F)(F)F)C(=O)NCC(F)(F)F (centres unmarked) [F23, (Z)-2-(4-(3-(4-Bromo-3,5-dichlorophenyl)-1,4,4,4-tetratfluorobut-1-en-1-yl)-2-(trifluoromethyl)benzoyl)-1-methyl-N-(2,2,2-trifluoroethyl)hydrazinecarboxamide]	A (50-100)	A (50-100)	
O=C(NNS(=O)(=O)CCC(F)(F)F)c1ccc(/C(F)=C/C(c2cc(Cl)c(Cl)c(Cl)c2)C(F)(F)F)cc1C(F)(F)F (centres unmarked) [F24, (Z)-3,3,3-Trifluoro-N′-(4-(1,4,4,4-tetrafluoro-3-(3,4,5-trichlorophenyl)but-1-en-1-yl)-2-(trifluoromethyl)benzoyl)propane-1-sulfonohydrazide]	A (50-100)	A (50-100)	
Cc1cc(/C(F)=C/C(c2cc(Cl)c(Cl)c(Cl)c2)C(F)(F)F)ccc1C(=O)NN(C)C(=O)NCC(F)(F)F (centres unmarked) [F28, (Z)-1-Methyl-2-(2-methyl-4-(1,4,4,4-tetrafluoro-3-(3,4,5-trichlorophenyl)but-1-en-1-yl)benzoyl)-N-(2,2,2-trifluoroethyl)hydrazinecarboxamide]			mortality at 0.05 µg/cm2 [1]: 100%; mortality at 0.5 µg/cm2 [1]: 100%; mortality at 5 µg/cm2 [1]: 100%; mortality at 0.05 µg/cm2 [2]: 88%; mortality at 0.5 µg/cm2 [2]: 100%; mortality at 5 µg/cm2 [2]: 100%
CC(C)(C)C(=O)NNC(=O)c1ccc(/C(F)=C/C(c2cc(Cl)c(Cl)c(Cl)c2)C(F)(F)F)cc1C(F)(F)F (centres unmarked) [F29, (Z)—N′-Pivaloyl-4-(1,4,4,4-tetrafluoro-3-(3,4,5-trichlorophenyl)but-1-en-1-yl)-2-(trifluoromethyl)benzohydrazide]	A (50-100)	A (50-100)	
CN(NC(=O)c1ccc(/C(F)=C/C(c2cc(Cl)c(Cl)c(Cl)c2)C(F)(F)F)cc1)C(=O)NCC(F)(F)F (centres unmarked) [FC1, (Z)-1-methyl-2-(4-(1,4,4,4-tetrafluoro-3-(3,4,5-trichlorophenyl)but-1-en-1-yl)benzoyl)-N-(2,2,2-trifluoroethyl)hydrazinecarboxamide, reference compound]			mortality at 0.05 µg/cm2 [1]: 0%; mortality at 0.5 µg/cm2 [1]: 0%; mortality at 5 µg/cm2 [1]: 7%; mortality at 0.05 µg/cm2 [2]: 0%; mortality at 0.5 µg/cm2 [2]: 0%; mortality at 5 µg/cm2 [2]: 25%
CN(NC(=O)c1ccc(/C(F)=C/C(c2cc(Cl)c(Cl)c(Cl)c2)C(F)(F)F)c2ccccc12)C(=O)NCC(F)(F)F (centres unmarked) [PF1, (Z)-1-Methyl-2-(4-(1,4,4,4-tetrafluoro-3-(3,4,5-trichlorophenyl)but-1-en-1-yl)-1-naphthoyl)-N-(2,2,2-trifluoroethyl)hydrazine-1-carboxamide]	A (50-100)	A (50-100)	
